Reference: ChEMBL document CHEMBL1201862, “PubChem BioAssay data set” (2004)
Where a name gives a salt, the structure may show the parent alone.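 1) Cells in 96-well plates. 2) Compound, 48 h, 5 concentrations. 3) Linear interpolation between surrounding doses. 4) Unreached endpoint = highest concentration. GI50: concentration for 50% inhibition of growth.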 Calls of active or inactive are those of the source. Rule as the data show it: active = GI50 up to about 1.1 µM and inactive = higher.

Legend:
Experiment in all cases: DTP human tumour cell line panel, 48 h
HCT-116 = system: HCT-116
NCI-H460 = system: NCI-H460
LOX IMVI = system: LOX IMVI
SK-OV-3 = system: SK-OV-3
SR = system: SR
M14 = system: M14
SF-268 = system: SF-268
A549 = system: A549
HCC 2998 = system: HCC 2998
DU-145 = system: DU-145
MDA-MB-435 = system: MDA-MB-435
COLO 205 = system: COLO 205
ACHN = system: ACHN
CCRF-CEM = system: CCRF-CEM
NCI-H226 = system: NCI-H226
SK-MEL-28 = system: SK-MEL-28
RPMI-8226 = system: RPMI-8226
KM12 = system: KM12
SW-620 = system: SW-620

Row | SMILES | GI50 (HCT-116) | GI50 (NCI-H460) | GI50 (LOX IMVI) | GI50 (SK-OV-3) | GI50 (SR) | GI50 (M14) | GI50 (SF-268) | GI50 (A549) | GI50 (HCC 2998) | GI50 (DU-145) | GI50 (MDA-MB-435) | GI50 (COLO 205) | GI50 (ACHN) | GI50 (CCRF-CEM) | GI50 (NCI-H226) | GI50 (SK-MEL-28) | GI50 (RPMI-8226) | GI50 (KM12) | GI50 (SW-620)
1 | CCOC(=O)CC(=O)Nc1cccc2sc3ncccc3c(=O)c12 | 46 µM (inactive) | 19.5 µM (inactive) | 19 µM (inactive) | 22.4 µM (inactive) | 33.3 µM (inactive) | 87.1 µM (inactive) | 36.2 µM (inactive) | 18.4 µM (inactive) | 25.9 µM (inactive) | 84.9 µM (inactive) | 44.7 µM (inactive) | 68.2 µM (inactive) | 33.3 µM (inactive) | 10.8 µM (inactive) | 27.9 µM (inactive) | 47.8 µM (inactive) | 35.6 µM (inactive) | 77.4 µM (inactive) | > 100 µM (inactive)
2 | COc1cccc(-c2c(-c3ccccc3)[nH]c(C)c2C(=O)ONC(=O)c2ccccc2)c1 | 3.98 µM (inactive) | 3.19 µM (inactive) | 1.89 µM (inactive) | 14.2 µM (inactive) | 2.07 µM (inactive) | 5.7 µM (inactive) | 7.57 µM (inactive) | 2.29 µM (inactive) | 14.4 µM (inactive) | 2.59 µM (inactive) | 3.34 µM (inactive) | 13.7 µM (inactive) | 2.99 µM (inactive) | 3.21 µM (inactive) | 10.4 µM (inactive) | 14.7 µM (inactive) | 6.28 µM (inactive) | 13.7 µM (inactive) | 13.6 µM (inactive)
3 | CC(C)=CCCC(C)CCOS(=O)C(F)(F)F (stereo not drawn) | 12.6 µM (inactive) | 16.1 µM (inactive) | 16.3 µM (inactive) | 22.1 µM (inactive) | 1.92 µM (inactive) | 1.35 µM (inactive) | 17.7 µM (inactive) | 22.9 µM (inactive) | 13.2 µM (inactive) | 35.3 µM (inactive) | 4.18 µM (inactive) | 4.7 µM (inactive) | 11.4 µM (inactive) | 4.29 µM (inactive) | 20 µM (inactive) | 11 µM (inactive) | 29.4 µM (inactive) | 88.7 µM (inactive) | 3.29 µM (inactive)
4 | O=[N+]([O-])c1ccc(-c2nn3c(C45CC6CC(CC(C6)C4)C5)nnc3s2)c(Cl)c1 | > 100 µM (inactive) | > 100 µM (inactive) | > 100 µM (inactive) | > 100 µM (inactive) | > 100 µM (inactive) | > 100 µM (inactive) | > 100 µM (inactive) | > 100 µM (inactive) | > 100 µM (inactive) | > 100 µM (inactive) | > 100 µM (inactive) | > 100 µM (inactive) | > 100 µM (inactive) | > 100 µM (inactive) | > 100 µM (inactive) | > 100 µM (inactive) | > 100 µM (inactive) | > 100 µM (inactive) | > 100 µM (inactive)
5 | Nc1cc(C2CCCc3c2[nH]c2ccccc32)ccc1O (stereo not drawn) | 20.3 µM (inactive) | > 100 µM (inactive) | 16.4 µM (inactive) | > 100 µM (inactive) | 4.48 µM (inactive) | 6.19 µM (inactive) | 45.9 µM (inactive) | 24.6 µM (inactive) | 64.7 µM (inactive) | 26 µM (inactive) | 12.3 µM (inactive) | 45.4 µM (inactive) | 18.5 µM (inactive) | 0.76 µM (active) | 55.3 µM (inactive) | > 100 µM (inactive) | 0.271 µM (active) | 20.1 µM (inactive) | 23.6 µM (inactive)
6 | CC(=O)c1c(O)nnc(-c2ccc(Cl)cc2)c1-c1ccc(Cl)cc1 | 58.2 µM (inactive) | 33 µM (inactive) | 21.7 µM (inactive) | 40.8 µM (inactive) | 27.9 µM (inactive) | 65.6 µM (inactive) | > 100 µM (inactive) | 29.9 µM (inactive) | 61.8 µM (inactive) | 54.8 µM (inactive) | 29.9 µM (inactive) | 29.2 µM (inactive) | 22 µM (inactive) | 45.7 µM (inactive) | 31.3 µM (inactive) | 41.9 µM (inactive) | 23.2 µM (inactive) | 35.2 µM (inactive) | 62.5 µM (inactive)
7 | COc1ccc(Cc2nccc3cc(OC)c(OC)cc23)cc1OC [PAPAVERINE HYDROCHLORIDE] | 39.3 µM (inactive) | 19 µM (inactive) | 60.8 µM (inactive) | > 100 µM (inactive) | 19.2 µM (inactive) | > 100 µM (inactive) | > 100 µM (inactive) | > 100 µM (inactive) | 92.9 µM (inactive) | > 100 µM (inactive) | > 100 µM (inactive) | > 100 µM (inactive) | 63 µM (inactive) | > 100 µM (inactive) | 43.5 µM (inactive) | > 100 µM (inactive) | 36.7 µM (inactive) | > 100 µM (inactive) | > 100 µM (inactive)
